Reference: US20250235543A1, “MODIFIED PROTEINS AND PROTEIN DEGRADERS” (Cullgen (Shanghai), Inc., priority 2021, published 2025)
Read-outs that look alike come from different tables or passages of the source.

Tests used:
cyclin D1 = assay: Cyclin D1 percentage degradation in Calu-1 cells (immunoblotting); type: cell-based; details: 16 hours
Summary of the method: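 Cells were rinsed once in cold PBS and lysed in cold RIPA buffer containing protease and phosphatase inhibitors, with gentle agitation at 4° C. for 30 min. Lysates were spun at 13,000 rpm for 10 min at 4° C., protein was measured by BCA, and samples were boiled in Laemmli buffer at 99° C. for 5 min before SDS-PAGE immunoblotting.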

CDK4 = biological target: T1, CDK4 (Homo sapiens, UniProt P11802); assay: CDK4 percentage degradation in Calu-1 cells (immunoblotting); type: cell-based; details: for inhibition at 10 µM: read-out: CDK4 Degradation (10 μM); for inhibition at 0.2 µM: read-out: CDK4 Degradation (200 nM)
T1 construct: endogenous in cells; host or cells: Calu-1
T1 sequence (P11802 2-303 limits assumed): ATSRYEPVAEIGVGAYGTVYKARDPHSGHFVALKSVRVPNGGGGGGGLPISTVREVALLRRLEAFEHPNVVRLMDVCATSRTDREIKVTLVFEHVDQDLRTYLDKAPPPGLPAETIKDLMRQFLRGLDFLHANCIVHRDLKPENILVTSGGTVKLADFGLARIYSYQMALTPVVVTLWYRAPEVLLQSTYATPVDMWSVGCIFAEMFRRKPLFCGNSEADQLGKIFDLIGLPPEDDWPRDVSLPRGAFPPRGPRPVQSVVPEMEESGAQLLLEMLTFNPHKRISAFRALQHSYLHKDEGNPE
T1 sequence (P24385 whole entry partner): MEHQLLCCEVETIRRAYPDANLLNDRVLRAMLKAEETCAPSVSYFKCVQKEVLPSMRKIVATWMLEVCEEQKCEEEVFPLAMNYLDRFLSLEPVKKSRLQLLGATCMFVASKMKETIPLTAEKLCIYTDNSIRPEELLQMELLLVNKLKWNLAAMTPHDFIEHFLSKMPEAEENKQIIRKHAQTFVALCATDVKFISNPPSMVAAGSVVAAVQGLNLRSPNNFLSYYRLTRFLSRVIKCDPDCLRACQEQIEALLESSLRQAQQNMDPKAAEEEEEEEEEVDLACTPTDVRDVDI
T1 sequence (Q16531 2-1140 limits assumed, further chain): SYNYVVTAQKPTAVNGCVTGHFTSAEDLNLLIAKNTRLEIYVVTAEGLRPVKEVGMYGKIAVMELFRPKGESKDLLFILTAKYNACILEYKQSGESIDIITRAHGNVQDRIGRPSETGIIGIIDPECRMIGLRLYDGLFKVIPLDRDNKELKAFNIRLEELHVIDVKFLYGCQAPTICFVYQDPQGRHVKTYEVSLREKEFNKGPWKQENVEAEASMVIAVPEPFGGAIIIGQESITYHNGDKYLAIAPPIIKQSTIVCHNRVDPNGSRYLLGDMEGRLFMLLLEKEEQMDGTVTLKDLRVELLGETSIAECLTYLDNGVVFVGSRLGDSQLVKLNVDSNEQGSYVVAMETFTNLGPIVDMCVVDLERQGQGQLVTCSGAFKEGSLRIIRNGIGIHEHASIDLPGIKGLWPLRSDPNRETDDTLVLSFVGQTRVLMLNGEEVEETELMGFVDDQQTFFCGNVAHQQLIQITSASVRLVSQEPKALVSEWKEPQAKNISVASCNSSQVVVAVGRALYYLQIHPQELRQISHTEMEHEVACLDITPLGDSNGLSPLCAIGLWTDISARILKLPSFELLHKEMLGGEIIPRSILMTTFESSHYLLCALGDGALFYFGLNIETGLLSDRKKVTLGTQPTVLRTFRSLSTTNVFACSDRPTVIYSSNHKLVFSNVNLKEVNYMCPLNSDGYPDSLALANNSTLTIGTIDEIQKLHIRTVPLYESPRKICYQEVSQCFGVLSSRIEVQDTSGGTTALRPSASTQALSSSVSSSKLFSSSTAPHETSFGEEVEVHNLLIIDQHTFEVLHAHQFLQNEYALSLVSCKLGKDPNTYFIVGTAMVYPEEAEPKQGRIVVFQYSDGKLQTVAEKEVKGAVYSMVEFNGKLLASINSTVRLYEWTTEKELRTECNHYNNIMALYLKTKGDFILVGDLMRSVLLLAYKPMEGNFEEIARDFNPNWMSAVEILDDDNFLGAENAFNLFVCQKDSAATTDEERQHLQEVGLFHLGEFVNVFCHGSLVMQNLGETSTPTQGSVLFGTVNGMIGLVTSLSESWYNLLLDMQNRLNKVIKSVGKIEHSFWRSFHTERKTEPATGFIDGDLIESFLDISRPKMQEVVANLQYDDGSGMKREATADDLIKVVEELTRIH
Summary of the method: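 Cultured cells were rinsed once in cold PBS and lysed in cold RIPA buffer containing protease and phosphatase inhibitors, with gentle agitation at 4° C. for 30 min. Lysates were centrifuged at 13,000 rpm for 10 min at 4° C., and protein was quantified by BCA. Samples were then separated by SDS-PAGE, detected with ECL, and the CDK4 bands quantified in Image Lab.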

Row | Compound | CyclinD1 Degradation (10 μM) (cyclin D1) | inhibition at 10 µM (CDK4; Calu-1 cells, 16 hours) [%] | CyclinD1 Degradation (200 nM) (cyclin D1) | inhibition at 0.2 µM (CDK4; Calu-1 cells, 200 nM, 16 hours) [%] | inhibition at 0.2 µM (CDK4; Calu-1, 16 h) [%]
1 | Cc1nc(NC(=O)c2ccccc2NC(=O)CCOCCOCCOCCNC(=O)CN2CCN(c3ccc(Nc4ncc5cc(C(=O)N(C)C)n(C6CCCC6)c5n4)nc3)CC2)sc1C [CPD-296, 7-Cyclopentyl-2-((5-(4-(15-((2-((4,5-dimethylthiazol-2-yl)carbamoyl)phenyl)amino)-2,15-dioxo-6,9,12-trioxa-3-azapentadecyl)piperazin-1-yl)pyridin-2-yl)amino)-N,N-dimethyl-7H-pyrrolo[2,3-d]pyrimidine-6-carboxamide] | A (protein percentage degradation >= 80%) | 50 to 80 | – | – | –
2 | CC(=O)c1c(C)c2cnc(Nc3ccc(N4CCN(CC(=O)NCCOCCOCCC(=O)Nc5ccccc5C(=O)Nc5nc(C)ns5)CC4)cn3)nc2n(C2CCCC2)c1=O [CPD-058, 2-(3-(2-(2-(2-(4-(6-((6-Acetyl-8-cyclopentyl-5-methyl-7-oxo-7,8-dihydropyrido[2,3-d]pyrimidin-2-yl)amino)pyridin-3-yl)piperazin-1-yl)acetamido)ethoxy)ethoxy)propanamido)-N-(3-methyl-1,2,4-thiadiazol-5-yl)benzamide] | – | – | D (protein percentage degradation <30%) | < 30 | –
3 | CC(=O)c1c(C)c2cnc(Nc3ccc(N4CCN(CC(=O)NCCOCCOCCC(=O)Nc5ccc(C)cc5C(=O)Nc5nc(C)c(C)s5)CC4)cn3)nc2n(C2CCCC2)c1=O [CPD-141, 2-(3-(2-(2-(2-(4-(6-((6-Acetyl-8-cyclopentyl-5-methyl-7-oxo-7,8-dihydropyrido[2,3-d]pyrimidin-2-yl)amino)pyridin-3-yl)piperazin-1-yl)acetamido)ethoxy)ethoxy)propanamido)-N-(4,5-dimethylthiazol-2-yl)-5-methylbenzamide] | – | – | A (protein percentage degradation >=80%) | 50 to 80 | –
4 | Cc1nc(NC(=O)c2ccccc2NC(=O)CCOCCOCCOCCOCCNC(=O)CN2CCN(Cc3ccc(Nc4ncc(F)c(-c5cc(F)c6nc(C)n(C(C)C)c6c5)n4)nc3)CC2)sc1C [CPD-283, N-(4,5-Dimethylthiazol-2-yl)-2-(1-(4-((6-((5-fluoro-4-(4-fluoro-1-isopropyl-2-methyl-1H-benzo[d]imidazol-6-yl)pyrimidin-2-yl)amino)pyridin-3-yl)methyl)piperazin-1-yl)-2-oxo-6,9,12,15-tetraoxa-3-azaoctadecan-18-amido)benzamide] | D (protein percentage degradation < 30%) | < 30 | – | – | –
5 | CC(=O)c1c(C)c2cnc(Nc3ccc(N4CCN(CC(=O)NCCOCCOCCOCCNc5cccc(C(=O)Nc6nc(C)c(C)s6)c5C)CC4)cn3)nc2n(C2CCCC2)c1=O [CPD-105, 3-((1-(4-(6-((6-Acetyl-8-cyclopentyl-5-methyl-7-oxo-7,8-dihydropyrido[2,3-d]pyrimidin-2-yl)amino)pyridin-3-yl)piperazin-1-yl)-2-oxo-6,9,12-trioxa-3-azatetradecan-14-yl)amino)-N-(4,5-dimethylthiazol-2-yl)-2-methylbenzamide] | – | – | A (protein percentage degradation >=80%) | 50 to 80 | –
6 | CC(=O)c1c(C)c2cnc(Nc3ccc(N4CCN(CC(=O)NCCOCCOCCOCCOCCOCCNc5ccc(C(=O)Nc6nc(-c7ccccc7)c(C)s6)c(C)c5)CC4)cn3)nc2n(C2CCCC2)c1=O [CPD-034] | – | – | D (protein percentage degradation <30%) | < 30 | –
7 | CC(=O)c1c(C)c2cnc(Nc3ccc(N4CCN(C(=O)CNc5ccc(C)c(C(=O)Nc6nc(C)c(C)s6)c5)CC4)cn3)nc2n(C2CCCC2)c1=O [CPD-135, 5-((2-(4-(6-((6-Acetyl-8-cyclopentyl-5-methyl-7-oxo-7,8-dihydropyrido[2,3-d]pyrimidin-2-yl)amino)pyridin-3-yl)piperazin-1-yl)-2-oxoethyl)amino)-N-(4,5-dimethylthiazol-2-yl)-2-methylbenzamide] | – | – | D (protein percentage degradation <30%) | – | < 30
8 | CC(=O)c1c(C)c2cnc(Nc3ccc(N4CCN(CC(=O)NCCNc5cccc(C(=O)Nc6nc(C)c(C)s6)c5C)CC4)cn3)nc2n(C2CCCC2)c1=O [CPD-092, 3-((2-(2-(4-(6-((6-Acetyl-8-cyclopentyl-5-methyl-7-oxo-7,8-dihydropyrido[2,3-d]pyrimidin-2-yl)amino)pyridin-3-yl)piperazin-1-yl)acetamido)ethyl)amino)-N-(4,5-dimethylthiazol-2-yl)-2-methylbenzamide] | – | – | D (protein percentage degradation <30%) | < 30 | –
9 | CC(=O)c1c(C)c2cnc(Nc3ccc(N4CCN(CC(=O)NCCOCCOCCC(=O)Nc5c(C(=O)Nc6ccc(C)cn6)ccc6[nH]ncc56)CC4)cn3)nc2n(C2CCCC2)c1=O [CPD-359] | – | – | A (protein percentage degradation >=80%) | 50 to 80 | –
10 | CC(=O)c1c(C)c2cnc(Nc3ccc(N4CCN(CC(=O)NCCOCCNc5cccc(C(=O)Nc6nc(C)c(C)s6)c5C)CC4)cn3)nc2n(C2CCCC2)c1=O [CPD-103, 3-((2-(2-(2-(4-(6-((6-Acetyl-8-cyclopentyl-5-methyl-7-oxo-7,8-dihydropyrido[2,3-d]pyrimidin-2-yl)amino)pyridin-3-yl)piperazin-1-yl)acetamido)ethoxy)ethyl)amino)-N-(4,5-dimethylthiazol-2-yl)-2-methylbenzamide] | – | – | D (protein percentage degradation <30%) | < 30 | –
11 | CC(=O)c1c(C)c2cnc(Nc3ccc(N4CCN(C(=O)CNc5cccc(C(=O)Nc6nc(C)c(C)s6)c5C)CC4)cn3)nc2n(C2CCCC2)c1=O [CPD-124, 3-((2-(4-(6-((6-Acetyl-8-cyclopentyl-5-methyl-7-oxo-7,8-dihydropyrido[2,3-d]pyrimidin-2-yl)amino)pyridin-3-yl)piperazin-1-yl)-2-oxoethyl)amino)-N-(4,5-dimethylthiazol-2-yl)-2-methylbenzamide] | – | – | D (protein percentage degradation <30%) | – | < 30
12 | CC(=O)c1c(C)c2cnc(Nc3ccc(N4CCN(CC(=O)NCCNc5ccc(C)c(C(=O)Nc6nc(C)c(C)s6)c5)CC4)cn3)nc2n(C2CCCC2)c1=O [CPD-093, 5-((2-(2-(4-(6-((6-Acetyl-8-cyclopentyl-5-methyl-7-oxo-7,8-dihydropyrido[2,3-d]pyrimidin-2-yl)amino)pyridin-3-yl)piperazin-1-yl)acetamido)ethyl)amino)-N-(4,5-dimethylthiazol-2-yl)-2-methylbenzamide] | – | – | D (protein percentage degradation <30%) | < 30 | –
13 | CC(=O)c1c(C)c2cnc(Nc3ccc(N4CCN(CC(=O)NCCCCCCCNC(=O)CNc5ccc(C(=O)Nc6ncc(C)s6)c(C)c5)CC4)cn3)nc2n(C2CCCC2)c1=O [CPD-016, 4-((2-((7-(2-(4-(6-((6-Acetyl-8-cyclopentyl-5-methyl-7-oxo-7,8-dihydropyrido[2,3-d]pyrimidin-2-yl)amino)pyridin-3-yl)piperazin-1-yl)acetamido)heptyl)amino)-2-oxoethyl)amino)-2-methyl-N-(5-methylthiazol-2-yl)benzamide] | – | – | D (protein percentage degradation <30%) | < 30 | –
14 | Cc1nc(NC(=O)c2ccccc2NC(=O)CCCCNC(=O)CN2CCN(c3ccc(Nc4ncc(F)c(-c5cc(F)c6nc(C)n(C(C)C)c6c5)n4)nc3)CC2)sc1C [CPD-303, N-(4,5-Dimethylthiazol-2-yl)-2-(5-(2-(4-(6-((5-fluoro-4-(4-fluoro-1-isopropyl-2-methyl-1H-benzo[d]imidazol-6-yl)pyrimidin-2-yl)amino)pyridin-3-yl)piperazin-1-yl)acetamido)pentanamido)benzamide] | D (protein percentage degradation < 30%) | < 30 | – | – | –
15 | CC(=O)c1c(C)c2cnc(Nc3ccc(N4CCN(CC(=O)NCCOCCOCCC(=O)Nc5ccccc5C(=O)Nc5cc(C)n(C(C)C)n5)CC4)cn3)nc2n(C2CCCC2)c1=O [CPD-076, 2-(3-(2-(2-(2-(4-(6-((6-Acetyl-8-cyclopentyl-5-methyl-7-oxo-7,8-dihydropyrido[2,3-d]pyrimidin-2-yl)amino)pyridin-3-yl)piperazin-1-yl)acetamido)ethoxy)ethoxy)propanamido)-N-(1-isopropyl-5-methyl-1H-pyrazol-3-yl)benzamide] | – | – | C (protein percentage degradation <50%, and >=30%) | 50 to 80 | –
16 | CC(=O)c1c(C)c2cnc(Nc3ccc(N4CCN(CC(=O)NCCOCCOCCC(=O)Nc5ccccc5C(=O)Nc5ccc(C)s5)CC4)cn3)nc2n(C2CCCC2)c1=O [CPD-065, 2-(3-(2-(2-(2-(4-(6-((6-Acetyl-8-cyclopentyl-5-methyl-7-oxo-7,8-dihydropyrido[2,3-d]pyrimidin-2-yl)amino)pyridin-3-yl)piperazin-1-yl)acetamido)ethoxy)ethoxy)propanamido)-N-(5-methylthiophen-2-yl)benzamide] | – | – | A (protein percentage degradation >=80%) | 50 to 80 | –
17 | Cc1nc(NC(=O)c2ccccc2NC(=O)CCOCCOCCOCCOCCOCCNC(=O)CN2CCN(Cc3ccc(Nc4ncc(F)c(-c5cc(F)c6nc(C)n(C(C)C)c6c5)n4)nc3)CC2)sc1C [CPD-284, N-(4,5-Dimethylthiazol-2-yl)-2-(1-(4-((6-((5-fluoro-4-(4-fluoro-1-isopropyl-2-methyl-1H-benzo[d]imidazol-6-yl)pyrimidin-2-yl)amino)pyridin-3-yl)methyl)piperazin-1-yl)-2-oxo-6,9,12,15,18-pentaoxa-3-azahenicosan-21-amido)benzamide] | D (protein percentage degradation < 30%) | < 30 | – | – | –
